The test system of assay [1] is hESC (HS420) expressing Ki67-SR39. Description: ATP-based cell survival assay, GCV-induced cell death. On the set-up: species or system human. The note with it: for EC50: Homo sapiens. Here is the method: Our first generation of suicide gene was engineered with the wild type thymidine kinase (wt-TK). To improve the suicide gene efficacy, we investigated different TK variants; wt-TK, 30-GMK, SR39, SR39h, and SR39h D116E variants. These sequences were chosen based on the analysis of the literature investigating HSV1-TK variants, as well as a gain of function mutation in the CMV UL-97 kinase. The efficacy of each variants was determined as percentage of cell survival following prodrug treatment compared to non-treated hESC. For this purpose, we used the ATP-based assay, which measures cellular ATP content and thereby provides a reliable estimate of the number of healthy cells. The 50% effective concentration (EC50) was defined as the drug concentration required to reduce the percentage of cell survival by 50%. […] In order to optimize our system, we first replaced the wt-TK by the 30-GMK variant, which is a fusion between the 30 TK variant and guanylate kinase (GMK). Note that GMK is mediating the second phosphorylation step of antiviral nucleoside analogs. […] Microbial codon usage might not yield optimal results in human cells. We therefore adapted the SR39 sequence to a typical human codon usage. For this purpose, 218 of the total 376 codons of the SR39 sequence were changed (for details see Supplementary Sequence 1 and Method section). We will refer to this sequence as the SR39h variant.
(§1) Figure 1 EC50 of ganciclovir (GCV) in cell expressing different thymidine kinase (TK) variants. […] Number of surviving cells was monitored using bioluminescent ATP-based assay. […]
(§2) Cell culture plate (96 wells plate Corning #3907, Corning, Lonay, Switzerland) were pre-coated with 60 μL per well of Poly-L-ornithine solution (Sigma, Merk, Eysins, Switzerland) at 37 °C for 30 min. […] For EC50 assays, the medium was changed daily for 4 days, then cell viability was assessed using an ATP-based assay. EC50 values for each construct were calculated using a four parameters equation (GraphPad, Prism8, San Diego, CA, USA). […]

For assay [2], the system named is hESC (HS420) expressing Ki67-30-GMK. The assay is described as above. The note with it: Homo sapiens, 96 h, read-out: EC50 of GCV (cell survival). As to the method:
(§3) Our first generation of suicide gene was engineered with the wild type thymidine kinase (wt-TK). To improve the suicide gene efficacy, we investigated different TK variants; wt-TK, 30-GMK, SR39, SR39h, and SR39h D116E variants. These sequences were chosen based on the analysis of the literature investigating HSV1-TK variants, as well as a gain of function mutation in the CMV UL-97 kinase. The efficacy of each variants was determined as percentage of cell survival following prodrug treatment compared to non-treated hESC. For this purpose, we used the ATP-based assay, which measures cellular ATP content and thereby provides a reliable estimate of the number of healthy cells. […]
as §1, §2

The test system of assay [3] is hESC (HS420) expressing Ki67-wt-TK. The description is as above. The note with it: Homo sapiens; 96 h GCV exposure; wt-TK under Ki67 promoter. As to the method: as §3, §1, §2
The test system of assay [4] is ReNcell wt (non-transduced proliferating ReNcells). Briefly: cells. The conditions noted are these: Homo sapiens; 96 h GCV exposure; read-out: EC50 of GCV, killing of non-transduced proliferating ReNcells. It counts as cell-based. Here is the method: Cells were exposed to 100 µM of the respective nucleoside for 48 h. DNA damage was monitored using γ-H2A.X marker in yellow and nuclei were counterstained with Hoechst. The white box in the first column indicates the area of the zoom for the hESC colonies.
Plates were washed twice with DMEM-F12 (Gibco, ThermoFisher; Geneva, Switzerland), then coated with Matrigel (Corning, Lonay, Switzerland) 1/100 in DMEM-F12 and incubate 2 h at 37°. Cells were detached using Accutase and seeded at 2000 cells/well in serum-free culture medium containing 10 µM of ROCK inhibitor. At 24 h, the cell culture was continued without ROCK inhibitor. […] Drugs were prepared by serial dilution (two-fold) in 100% DMSO. At 48 h after seeding, cells were exposed to antiviral drugs for 96 h. For EC50 assays, the medium was changed daily for 4 days, then cell viability was assessed using an ATP-based assay. EC50 values for each construct were calculated using a four parameters equation (GraphPad, Prism8, San Diego, CA, USA). The same procedure was used for the cell death kinetic determinations except the treatment duration. Luminescence was measured using Spectra L384/L96 (0.2 sec exposure, Molecular devices, Biberach an der Riß, Germany).

SMILES strings stand for the structures. Read-outs that look alike come from different tables or passages of the source.

Consider `Nc1nc(O)c2ncn(COC(CO)CO)c2n1` [GCV, ganciclovir], for which the “Fold increase compare to wt-TK (fold reduction in EC50)” value in assay [1] (GCV EC50 ratio, Ki67-SR39 vs wt-TK) is listed as 50 fold. Besides, the EC50 amounted to 2 nM in assay [1] (96 h, read-out: EC50 of GCV (cell survival)); 1.9 nM in assay [1] (96 h GCV exposure, Ki67-SR39, read-out: GCV EC50); 110 nM in assay [2]; 96 nM in assay [3]; 12000 nM in assay [4].

In general, EC50 refers to the concentration giving half of the maximal effect.
